In patent US11596644B2, “Method for treating post-prandial hypoglycemia” (AVOLYNT, priority 2018, dated 2023):

Columns and labels:
rat SGLT2 = target: T1, rat SGLT2 (Rattus norvegicus, UniProt P53792); experiment: Inhibition of radiolabeled α-MG uptake into COS-7 cells transfected with rat SGLT2 (Dixon plot); assay type: cell-based; details: α-MG 0.3 and 1 mM
T1 construct: expressed in transfected cells; host or cells: COS-7
T1 sequence (P53792 1-670): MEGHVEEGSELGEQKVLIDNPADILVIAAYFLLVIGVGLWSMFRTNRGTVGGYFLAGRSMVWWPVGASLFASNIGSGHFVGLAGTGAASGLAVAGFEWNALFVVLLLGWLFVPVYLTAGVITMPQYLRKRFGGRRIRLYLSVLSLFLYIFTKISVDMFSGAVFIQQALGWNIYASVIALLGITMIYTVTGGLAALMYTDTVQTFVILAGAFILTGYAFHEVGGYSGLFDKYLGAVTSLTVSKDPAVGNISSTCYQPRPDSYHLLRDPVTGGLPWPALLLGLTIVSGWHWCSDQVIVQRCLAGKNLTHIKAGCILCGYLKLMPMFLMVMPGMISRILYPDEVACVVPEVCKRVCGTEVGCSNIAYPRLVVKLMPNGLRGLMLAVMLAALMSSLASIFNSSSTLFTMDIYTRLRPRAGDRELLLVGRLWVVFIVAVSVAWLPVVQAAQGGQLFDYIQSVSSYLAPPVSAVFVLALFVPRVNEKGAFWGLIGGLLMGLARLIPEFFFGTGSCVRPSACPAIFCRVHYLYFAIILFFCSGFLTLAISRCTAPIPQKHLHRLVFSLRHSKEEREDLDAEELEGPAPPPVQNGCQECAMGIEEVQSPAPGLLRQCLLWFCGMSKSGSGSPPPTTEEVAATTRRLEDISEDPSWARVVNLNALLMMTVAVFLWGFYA
Experimental: Selective inhibition study. Inhibition constants (Ki) of mizagliflozin for rat and human SGLT1 and SGLT2 were determined measuring concentration-dependent effects of test compound on uptake of radiolabeled methyl-α-D-glucopyranoside (α-MG) into COS-7 cells transiently transfected with cloned SGLT1 or SGLT2. Mizagliflozin was assessed at concentrations from 1 to 30 μM and 3 to 100 μM for human and rat SGLT2, respectively. It was assessed at concentrations from 30 nM to 1 μM and 10 to 30 nM for human and rat SGLT1, respectively. α-MG test concentrations were 0.3 and 1 mM. Data were analyzed and Ki determined using Dixon plots of initial transport rates. […] Inhibition constants were also determined for human SGLT1 and SGLT2.

[1] = tested on: healthy adult male volunteers; experiment: Single dose study in humans, pharmacodynamic parameters after breakfast; assay type: in vivo, human
Experimental: Single dose study in humans. A single oral dose of 2 mg, 5 mg, 10 mg, 20 mg, 40 mg, 80 mg, and 160 mg of mizagliflozin were administered to healthy adult male volunteers by a placebo-controlled, randomized, double-blind method. The single dose was administered orally immediately before breakfast with approximately 200 mL of water after fasting for at least 10 hours. Pharmacodynamic effect parameters (blood glucose level, insulin, GLP-1, and gastric inhibitory polypeptide (GIP)) were measured. Concentrations at each time point were measured, and summary statistics and coefficient variation (CV) were calculated for AUC0-t; t was up to 6 hours postdose. The time points were: before administration and 0.5, 1, 1.5, 2, 3, 4, 5, and 6 hours after administration. Blood glucose level and insulin were measured to evaluate in an exploratory manner the inhibitory effect on postprandial hyperglycemia. GLP-1 and GIP were measured to evaluate in an exploratory manner the incretin secretory action.

[2] = single oral dose 2 mg before breakfast
[3] = single oral dose 5 mg before breakfast
[4] = single oral dose 10 mg before breakfast
[5] = single oral dose 20 mg before breakfast
[6] = single oral dose 40 mg before breakfast
[7] = single oral dose 80 mg before breakfast
[8] = single oral dose 160 mg before breakfast

## Cc1cc(OCCCNCC(C)(C)C(N)=O)ccc1Cc1c(O[C@@H]2O[C@H](CO)[C@@H](O)[C@H](O)[C@H]2O)n[nH]c1C(C)C [mizagliflozin, 3-(3-{4-[3-(β-D-glucopyranosyloxy)-5-isopropyl-1H-pyrazol-4-ylmethyl-]-3-methylphenoxy}propylamino)-2,2-dimethylpropionamide]
Rat SGLT2
  Ki: 14 µM
[1]; [2]
  AUC 0-6 GIP: 818.5 pg·h/mL
  AUC 0-6 GLP-1 (active): 23.7 pmol·h/L
  AUC 0-6 Insulin: 123.2 uU*h/ml
  AUC 0-6 glucose: 628.3 mg·h/dL
  GIP (peak): 183.6 pg/mL
  GLP-1 (active) (peak): 6.4 pmol/L
  Glucose (peak): 128.7 mg/dL
  Insulin (peak): 40.38 uU/ml
  Time (h) to peak, GIP: 4 h
  Time (h) to peak, GLP-1 (active): 0.5 h
  Time (h) to peak, glucose: 1.5 h
  Time (h) to peak, insulin: 1.5 h
[1]; [3]
  AUC 0-6 GIP: 856.9 pg·h/mL
  AUC 0-6 GLP-1 (active): 28.5 pmol·h/L
  AUC 0-6 Insulin: 140.7 uU*h/ml
  AUC 0-6 glucose: 631.3 mg·h/dL
  GIP (peak): 194.5 pg/mL
  GLP-1 (active) (peak): 6.1 pmol/L
  Glucose (peak): 130.3 mg/dL
  Insulin (peak): 47.1 uU/ml
  Time (h) to peak, GIP: 3 h
  Time (h) to peak, GLP-1 (active): 0.5 h
  Time (h) to peak, glucose: 1 h
  Time (h) to peak, insulin: 1.5 h
[1]; [4]
  AUC 0-6 GIP: 945.7 pg·h/mL
  AUC 0-6 GLP-1 (active): 41.5 pmol·h/L
  AUC 0-6 Insulin: 120.4 uU*h/ml
  AUC 0-6 glucose: 661.9 mg·h/dL
  GIP (peak): 252.3 pg/mL
  GLP-1 (active) (peak): 8.7 pmol/L
  Glucose (peak): 143.8 mg/dL
  Insulin (peak): 39 uU/ml
  Time (h) to peak, GIP: 4 h
  Time (h) to peak, GLP-1 (active): 0.5 h
  Time (h) to peak, glucose: 1.5 h
  Time (h) to peak, insulin: 2 h
[1]; [5]
  AUC 0-6 GIP: 783.9 pg·h/mL
  AUC 0-6 GLP-1 (active): 55.8 pmol·h/L
  AUC 0-6 Insulin: 89.7 uU*h/ml
  AUC 0-6 glucose: 612.9 mg·h/dL
  GIP (peak): 216.7 pg/mL
  GLP-1 (active) (peak): 11.6 pmol/L
  Glucose (peak): 113.7 mg/dL
  Insulin (peak): 25.9 uU/ml
  Time (h) to peak, GIP: 4 h
  Time (h) to peak, GLP-1 (active): 1.5 h
  Time (h) to peak, glucose: 2 h
  Time (h) to peak, insulin: 3 h
[1]; [6]
  AUC 0-6 GIP: 591.4 pg·h/mL
  AUC 0-6 GLP-1 (active): 32.6 pmol·h/L
  AUC 0-6 Insulin: 99.7 uU*h/ml
  AUC 0-6 glucose: 629.1 mg·h/dL
  GIP (peak): 166.7 pg/mL
  GLP-1 (active) (peak): 7.5 pmol/L
  Glucose (peak): 130.3 mg/dL
  Insulin (peak): 33.8 uU/ml
  Time (h) to peak, GIP: 4 h
  Time (h) to peak, GLP-1 (active): 0.5 h
  Time (h) to peak, glucose: 1.5 h
  Time (h) to peak, insulin: 1.5 h
[1]; [7]
  AUC 0-6 GIP: 621.5 pg·h/mL
  AUC 0-6 GLP-1 (active): 24.1 pmol·h/L
  AUC 0-6 Insulin: 70.9 uU*h/ml
  AUC 0-6 glucose: 611.92 mg·h/dL
  GIP (peak): 161.6 pg/mL
  GLP-1 (active) (peak): 5.5 pmol/L
  Glucose (peak): 116 mg/dL
  Insulin (peak): 20.5 uU/ml
  Time (h) to peak, GIP: 5 h
  Time (h) to peak, GLP-1 (active): 2 h
  Time (h) to peak, glucose: 3 h
  Time (h) to peak, insulin: 3 h
[1]; [8]
  AUC 0-6 GIP: 445.5 pg·h/mL
  AUC 0-6 GLP-1 (active): 39.5 pmol·h/L
  AUC 0-6 Insulin: 62.7 uU*h/ml
  AUC 0-6 glucose: 606.2 mg·h/dL
  GIP (peak): 117.9 pg/mL
  GLP-1 (active) (peak): 7.9 pmol/L
  Glucose (peak): 106.5 mg/dL
  Insulin (peak): 16.2 uU/ml
  Time (h) to peak, GIP: 5 h
  Time (h) to peak, GLP-1 (active): 2 h
  Time (h) to peak, glucose: 3 h
  Time (h) to peak, insulin: 3 h
